Data as given in patent publication US20130059879A1, “Small Molecule Inhibitors of PFKFB3 and Glycolytic Flux and Their Methods of Use as Anti-Cancer Therapeutics” (UNIVERSITY OF LOUISVILLE RESEARCH FOUNDATION, INC., priority 2010, published 2013).
pIC50: −log10 of the molar value.

System: HCT-116
Assay: Cancer cell proliferation, Alamar Blue assay, 72 hours
Format: cell-based
Conditions: Homo sapiens, HCT-116
Description: (§1) The ability of the compounds described herein to kill or inhibit the proliferation of cancer cells was measured using either the MTT assay, or the Alamar Blue assay, or the Cell Titer Glow® assay using 48 or 72 hours exposure. […] The procedures are briefly described below. Cells of the desired tumor cell line were plated at 2×10^5 cells/ml in 96 well plates. Twice the indicated concentrations of the compounds of the invention were added to cells the following day in an equal volume of media. 72 hours later, cells were lysed and subjected to ATP determination using the CellTiter Glo-Luminescent Cell Viability Assay kit (Promega, Madison, Wis.). Experiments were done in triplicate. When using the MTT assay or the Alamar blue assay, the experimental conditions are essentially similar; at the end of the incubation period, 20 microliters of the MTT solution is added per well and the samples are incubated for an additional four hours, rinsed, and the absorbance at 570 nm measured. […] Table 2 lists the IC50 values for the compounds of the invention in several cell lines including Jurkat, Calu-6, NCI-H82, U937, HCT-116, and MDA-MB-231 cancer cell lines.

SMILES | pIC50
O=C(c1cc2c(ccc3ccccc32)[nH]1)c1ccccc1O [ACT-PFK-099, (3H-Benzo[e]indol-2-yl)-(2-hydroxy-phenyl)-methanone] | 6.31
O=C(c1cccc(O)c1)c1cc2c(ccc3ccccc32)[nH]1 [ACT-PFK-103, (3H-Benzo[e]indol-2-yl)-(3-hydroxy-phenyl)-methanone] | 6.44
O=C(c1cc[n+]([O-])cc1)c1cc2c(ccc3ccccc32)[nH]1 [ACT-PFK-106, (3H-benzo[e]indol-2-yl)-(1-oxy-pyridin-4-yl)-methanone] | 4.41

Other lines, results leading:

pIC50 | SMILES
< 4.00 | COC(=O)c1ccc(C(=O)c2cc3c(ccc4ccccc43)[nH]2)cc1 [ACT-PFK-110, 4-(3H-Benzo[e]indole-2-carbonyl)-benzoic acid methyl ester]
< 4.00 | COC(=O)c1cc(C(=O)c2cc3c(ccc4ccccc43)[nH]2)ccc1OCc1ccccc1 [ACT-PFK-113, 5-(3H-Benzo[e]indole-2-carbonyl)-2-benzyloxy-benzoic acid methyl ester]
< 4.00 | O=C(c1ccc(OCc2ccccc2)c(C(=O)O)c1)c1cc2c(ccc3ccccc32)[nH]1 [ACT-PFK-114, 5-(3H-Benzo[e]indole-2-carbonyl)-2-benzyloxy-benzoic acidmethanone]

System: NCI-H82
Assay: as above
Format: cell-based
Conditions: Homo sapiens, NCI-H82, read-out: IC50 NCl-H82
Description: as §1

SMILES | pIC50
O=C(c1cc2c(ccc3ccccc32)[nH]1)c1ccccc1O [ACT-PFK-099, (3H-Benzo[e]indol-2-yl)-(2-hydroxy-phenyl)-methanone] | 6.17
Cc1cc2[nH]c(C(=O)c3ccccc3)cc2c2ccccc12 [ACT-PFK-101, (5-Methyl-3H-benzo[e]indol-2-yl)-phenyl-methanone] | < 4.00
O=C(c1cccc(O)c1)c1cc2c(ccc3ccccc32)[nH]1 [ACT-PFK-103, (3H-Benzo[e]indol-2-yl)-(3-hydroxy-phenyl)-methanone] | 6.39
O=C(c1cc[n+]([O-])cc1)c1cc2c(ccc3ccccc32)[nH]1 [ACT-PFK-106, (3H-benzo[e]indol-2-yl)-(1-oxy-pyridin-4-yl)-methanone] | 4.82

Other lines, results leading:

pIC50 | SMILES
< 4.00 | COC(=O)c1ccc(C(=O)c2cc3c(ccc4ccccc43)[nH]2)cc1 [ACT-PFK-110, 4-(3H-Benzo[e]indole-2-carbonyl)-benzoic acid methyl ester]
< 4.00 | COC(=O)c1cc(C(=O)c2cc3c(ccc4ccccc43)[nH]2)ccc1OCc1ccccc1 [ACT-PFK-113, 5-(3H-Benzo[e]indole-2-carbonyl)-2-benzyloxy-benzoic acid methyl ester]
< 4.00 | O=C(c1ccc(OCc2ccccc2)c(C(=O)O)c1)c1cc2c(ccc3ccccc32)[nH]1 [ACT-PFK-114, 5-(3H-Benzo[e]indole-2-carbonyl)-2-benzyloxy-benzoic acidmethanone]

System: MDA-MB-231
Assay: as above
Format: cell-based
Conditions: Homo sapiens
Description: as §1

SMILES | pIC50
O=C(c1cccc(O)c1)c1cc2c(ccc3ccccc32)[nH]1 [ACT-PFK-103, (3H-Benzo[e]indol-2-yl)-(3-hydroxy-phenyl)-methanone] | 5.19
O=C(c1cc[n+]([O-])cc1)c1cc2c(ccc3ccccc32)[nH]1 [ACT-PFK-106, (3H-benzo[e]indol-2-yl)-(1-oxy-pyridin-4-yl)-methanone] | 4.55

Now from value to molecule:

pIC50 | SMILES
< 4.00 | COC(=O)c1ccc(C(=O)c2cc3c(ccc4ccccc43)[nH]2)cc1 [ACT-PFK-110, 4-(3H-Benzo[e]indole-2-carbonyl)-benzoic acid methyl ester]
< 4.00 | COC(=O)c1cc(C(=O)c2cc3c(ccc4ccccc43)[nH]2)ccc1OCc1ccccc1 [ACT-PFK-113, 5-(3H-Benzo[e]indole-2-carbonyl)-2-benzyloxy-benzoic acid methyl ester]
< 4.00 | O=C(c1ccc(OCc2ccccc2)c(C(=O)O)c1)c1cc2c(ccc3ccccc32)[nH]1 [ACT-PFK-114, 5-(3H-Benzo[e]indole-2-carbonyl)-2-benzyloxy-benzoic acidmethanone]

System: Jurkat
Assay: as above
Format: cell-based
Conditions: Homo sapiens, Jurkat
Description: as §1

SMILES | pIC50
O=C(c1cc2c(ccc3ccccc32)[nH]1)c1ccccc1O [ACT-PFK-099, (3H-Benzo[e]indol-2-yl)-(2-hydroxy-phenyl)-methanone] | 6.39
Cc1cc2[nH]c(C(=O)c3ccccc3)cc2c2ccccc12 [ACT-PFK-101, (5-Methyl-3H-benzo[e]indol-2-yl)-phenyl-methanone] | < 4.00
O=C(c1cccc(O)c1)c1cc2c(ccc3ccccc32)[nH]1 [ACT-PFK-103, (3H-Benzo[e]indol-2-yl)-(3-hydroxy-phenyl)-methanone] | 6.96
O=C(c1cc[n+]([O-])cc1)c1cc2c(ccc3ccccc32)[nH]1 [ACT-PFK-106, (3H-benzo[e]indol-2-yl)-(1-oxy-pyridin-4-yl)-methanone] | 4.68

The remaining lines, values ahead:

pIC50 | SMILES
< 4.00 | COC(=O)c1ccc(C(=O)c2cc3c(ccc4ccccc43)[nH]2)cc1 [ACT-PFK-110, 4-(3H-Benzo[e]indole-2-carbonyl)-benzoic acid methyl ester]
4.55 | COC(=O)c1cc(C(=O)c2cc3c(ccc4ccccc43)[nH]2)ccc1OCc1ccccc1 [ACT-PFK-113, 5-(3H-Benzo[e]indole-2-carbonyl)-2-benzyloxy-benzoic acid methyl ester]
< 4.00 | O=C(c1ccc(OCc2ccccc2)c(C(=O)O)c1)c1cc2c(ccc3ccccc32)[nH]1 [ACT-PFK-114, 5-(3H-Benzo[e]indole-2-carbonyl)-2-benzyloxy-benzoic acidmethanone]

System: U937
Assay: as above
Format: cell-based
Conditions: Homo sapiens, U-937
Description: as §1

SMILES | pIC50
O=C(c1cc2c(ccc3ccccc32)[nH]1)c1ccccc1O [ACT-PFK-099, (3H-Benzo[e]indol-2-yl)-(2-hydroxy-phenyl)-methanone] | 7.12
Cc1cc2[nH]c(C(=O)c3ccccc3)cc2c2ccccc12 [ACT-PFK-101, (5-Methyl-3H-benzo[e]indol-2-yl)-phenyl-methanone] | < 4.00
O=C(c1cc[n+]([O-])cc1)c1cc2c(ccc3ccccc32)[nH]1 [ACT-PFK-106, (3H-benzo[e]indol-2-yl)-(1-oxy-pyridin-4-yl)-methanone] | 5.50

Continued, values first:

pIC50 | SMILES
< 4.00 | COC(=O)c1ccc(C(=O)c2cc3c(ccc4ccccc43)[nH]2)cc1 [ACT-PFK-110, 4-(3H-Benzo[e]indole-2-carbonyl)-benzoic acid methyl ester]
4.57 | COC(=O)c1cc(C(=O)c2cc3c(ccc4ccccc43)[nH]2)ccc1OCc1ccccc1 [ACT-PFK-113, 5-(3H-Benzo[e]indole-2-carbonyl)-2-benzyloxy-benzoic acid methyl ester]
< 4.00 | O=C(c1ccc(OCc2ccccc2)c(C(=O)O)c1)c1cc2c(ccc3ccccc32)[nH]1 [ACT-PFK-114, 5-(3H-Benzo[e]indole-2-carbonyl)-2-benzyloxy-benzoic acidmethanone]

System: Calu-6
Assay: as above
Format: cell-based
Conditions: Homo sapiens, Calu-6
Description: as §1

SMILES | pIC50
O=C(c1cc2c(ccc3ccccc32)[nH]1)c1ccccc1O [ACT-PFK-099, (3H-Benzo[e]indol-2-yl)-(2-hydroxy-phenyl)-methanone] | 6.64
Cc1cc2[nH]c(C(=O)c3ccccc3)cc2c2ccccc12 [ACT-PFK-101, (5-Methyl-3H-benzo[e]indol-2-yl)-phenyl-methanone] | < 4.00
O=C(c1cccc(O)c1)c1cc2c(ccc3ccccc32)[nH]1 [ACT-PFK-103, (3H-Benzo[e]indol-2-yl)-(3-hydroxy-phenyl)-methanone] | 6.89
O=C(c1cc[n+]([O-])cc1)c1cc2c(ccc3ccccc32)[nH]1 [ACT-PFK-106, (3H-benzo[e]indol-2-yl)-(1-oxy-pyridin-4-yl)-methanone] | 5.05

The next lines start with the values.

pIC50 | SMILES
4.23 | COC(=O)c1ccc(C(=O)c2cc3c(ccc4ccccc43)[nH]2)cc1 [ACT-PFK-110, 4-(3H-Benzo[e]indole-2-carbonyl)-benzoic acid methyl ester]
4.55 | COC(=O)c1cc(C(=O)c2cc3c(ccc4ccccc43)[nH]2)ccc1OCc1ccccc1 [ACT-PFK-113, 5-(3H-Benzo[e]indole-2-carbonyl)-2-benzyloxy-benzoic acid methyl ester]
< 4.00 | O=C(c1ccc(OCc2ccccc2)c(C(=O)O)c1)c1cc2c(ccc3ccccc32)[nH]1 [ACT-PFK-114, 5-(3H-Benzo[e]indole-2-carbonyl)-2-benzyloxy-benzoic acidmethanone]
